Reference: patent publication US20130143902A1, “COMPOSITIONS AND METHODS OF TREATING A PROLIFERATIVE DISEASE WITH A QUINAZOLINONE DERIVATIVE” (GILEAD CALISTOGA LLC, priority 2011, published 2013)
pEC50: −log10 of the molar value.

Tests used:
pAkt in solid tumor = assay: pAkt activity, solid tumor; type: cell-based; conditions: N = 14
Description: (§1) Cellular viability and pAkt activity were used to determine effects of Compounds A, C, and D in solid tumor, B-cell malignancies, and T-cell malignancies.

[1] = system: pAkt in B Cell Malignancies; assay: pAkt activity, B cell malignancies; type: cell-based; conditions: N = 7
Description: as §1

IGROV-1 = assay: pAkt pathway inhibition, IGROV-1; type: cell-based; conditions: Homo sapiens; IGROV-1, Ovarian
OVCAR-3 = assay: pAkt pathway inhibition, OVCAR-3; type: cell-based; conditions: Homo sapiens; OVCAR-3, Ovarian
PTEN null T-ALL = assay: Diseased Lck/PTEN^fl/fl mice with PTEN null T-ALL; type: in vivo; conditions: 30 mg/kg BID, Day 4 and 7, compared to control mice

## CC(Nc1ncnc2[nH]cnc12)c1nc2cccc(Cl)c2c(=O)n1-c1ccccc1 (centres unmarked) [Compound A, 2-(1-(9H-purin-6-ylamino)ethyl)-5-chloro-3-phenylquinazolin-4(3H)-one]
pAkt in solid tumor
  pEC50: 6.73
[1]
  pEC50: 6.74
IGROV-1
  EC50: 10 nM
OVCAR-3
  EC50: 647 nM
PTEN null T-ALL
  luminescent signal: significantly lower
